This data set in a line: wn = mass fraction of the nth substance listed. As to conditions: 348 K, 101 kPa, Liquid, Pycnometric method.

± gives the expanded uncertainty stated by the source.

One may read the mass density as the mass of a sample divided by its volume. `[Br-].[Br-].[Mg+2]` [magnesium bromide (MgBr2)] + O: where the note is “w1 = 0.5348”, the mass density is 1674.1 ± 1.8 kg/m3. With `[Br-].[Br-].[Ca+2]` [calcium bromide] + O, under “w1 = 0.7426”, the mass density is recorded as 2062.6 ± 3.5 kg/m3.

Source of the values: the NIST ThermoML archive (doi:10.1021/acs.jced.5b00112).
